{"source": "patent US6384246B1", "about": "“Process for the preparation of maltol from plants belonging to the genus Abies” (Council of Scientific & Industrial Research, priority 2001, dated 2002)", "origin": "cited, not measured here", "settings": "in ethylene glycol at ambient temperature", "data": [{"smiles": "Cc1occc(=O)c1O", "note": "[maltol, 2-methyl-3-hydroxy-4-pyrone]", "values": [{"measurement": "solubility of maltol in ethylene glycol", "value": "about 4%"}]}]}
